What all share (test): inhibition of tumour cell growth, NCI panel, 48 h
In experiment [1] the test system is MDA-MB-435.
The test system of experiment [2] is A498 renal.
Experiment [3] concerns HOP-92 NSCLC.
Experiment [4] has as its system MOLT-4 leukemia.
Experiment [5] has as its system DU-145 prostate.
Experiment [6] concerns HCC-2998 colon.
In experiment [7] the test system is T-47D breast.
Experiment [8] deals with MCF7 breast.
For experiment [9], the system named is HL-60(TB) leukemia.

Where “and” joins values, the source holds several entries; their conditions need not be identical. Equal entries are not always repeated.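 Cells were grown in 96-well plates and exposed to each compound for 48 hours at five concentrations; endpoints were interpolated linearly between bracketing concentrations, or set to the highest concentration if not reached. GI50 is the concentration that inhibits growth by half. At the TGI there is no net growth.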 Peptide text beside a SMILES is read from it. * marks the point of attachment. Boc = CC(C)(C)OC(=O)* Where only a bound is given, the exact number is not on record here.

As to `C=C(CCC(C(=O)O)C1CCC2(C)C3=C(CCC12C)C1(C)CCC(O)C(C)(C)C1CC3)C(C)C` (configuration not stated), the TGI is above 100 µM in experiment [1]; 75.2 µM in [2]; above 100 µM in experiment [3]; above 100 µM in experiment [4]; above 100 µM in experiment [5]; above 100 µM in experiment [6]. Also, the TGI in experiment [7] and in experiment [8] was above 100 µM in each case.

Regarding `COc1ccc(C[C@H]2COC(=O)[C@@H]2Cc2cc(OC)c(OC)c(OC)c2)cc1OC`, the TGI in [1], in experiment [3], in experiment [9], in experiment [4], in experiment [5] and in experiment [6] was above 100 µM each time. Also, the TGI in experiment [7] was above 65.2 µM; in [8], above 100 µM.

Turning to `C=CCN1C(=O)/C(=C/c2ccc(Cl)cc2)N=C1SC1OC(COC(C)=O)C(OC(C)=O)C(OC(C)=O)C1OC(C)=O` (configuration not stated), the TGI is > 66.3 µM and 64.8 µM in experiment [1]; > 100 µM and 73.7 µM in experiment [2]; 66.5 µM and 31.4 µM in [3]; > 100 µM and 43.2 µM in experiment [4]; above 100 µM in experiment [5]; > 100 µM and 42.8 µM in [6]. Besides, the values for the TGI in [7] and in experiment [8] were 36.9 µM and above 100 µM, respectively. The GI50 in [2] is 80.5 µM and 31.1 µM; in experiment [3], 22 µM and 3.62 µM; in [6], 49.7 µM and 18.9 µM.

With `CCOC(=O)C(Cc1c(-c2[nH]c3ccccc3c2CC(NC(=O)CNC(C)=O)C(=O)OCC)[nH]c2ccccc12)NC(=O)CNC(C)=O` (configuration not stated), the TGI in experiment [1] is above 100 µM; in experiment [2], above 100 µM; in experiment [3], 85.2 µM; in [4], above 100 µM; in experiment [5], above 100 µM; in experiment [6] it was 47.8 µM.

Turning to `Clc1ncc(C(Cl)(Cl)Cl)nc1-c1ccccc1`, the TGI in experiment [1] amounted to 3.54 µM; in experiment [3] it was 4.5 µM; in [9] it was 6.41 µM; in [4] it was 28.9 µM; in [5], 2.96 µM; in [6] it was 2.9 µM. Further, the TGI in [7] came to 4.1 µM; in experiment [8] it was 3.44 µM.

As to `COC1(OC)/C(=C(\N)C=O)NC(C)(C)N1O`, the TGI is above 100 µM in [1]; above 100 µM in experiment [2]; above 100 µM in [3]; 55.9 µM in experiment [9]; above 100 µM in experiment [4]; above 100 µM in [5]. For the same compound, the TGI in [6] and in experiment [8] was above 100 µM throughout.

As to `CN(C)CCNC(=O)c1cccc2c(NC(CS)C(=O)O)c3ccccc3nc12` (configuration not stated), the TGI in experiment [1] was 21 µM; in experiment [3] it was above 100 µM; in experiment [9] it was 9.72 µM; in [4] it was 44.3 µM; in experiment [5] it was above 100 µM; in [6] it was above 100 µM. The compound further displayed a TGI in experiment [8] of 29.5 µM.

Consider `CCOc1cc(C=O)ccc1O`, for which the TGI in experiment [1], in experiment [3], in experiment [9], in experiment [4], in [5] and in experiment [6] was above 100 µM in each case. Further, the TGI in experiment [7] and in experiment [8] was above 100 µM throughout.

For `COc1ccc(S(=O)(=O)Nc2ccc(-c3csc(N4C(=O)/C(=C/C=C\c5ccccc5)N=C4c4ccccc4)n3)cc2)cc1Cl`, the TGI in [1] is 62 µM; in experiment [2], 73.1 µM; in experiment [3], 41.1 µM; in [9] it was 59.9 µM; in [4], above 100 µM; in experiment [5], 91.6 µM. For the same compound, the values for the TGI in experiment [7] and in [8] were 57.1 µM and above 100 µM, respectively.

For `c1csc(-c2ccc(-c3ccc(-c4cccs4)s3)s2)c1`, the TGI in [1], in experiment [2], in [9], in experiment [4], in experiment [5] and in experiment [6] was above 100 µM each time. In addition, the TGI in [7] and in experiment [8] was above 100 µM each time.

For `COc1cc2c(cc1OC)C1Cc3ccccc3CN1CCC2` (configuration not stated), the TGI in experiment [1], in experiment [2], in [3], in [4], in experiment [5] and in [6] was above 100 µM throughout. For the same compound, the TGI in experiment [7] and in experiment [8] was above 100 µM throughout.

In the case of `C=C1C(=O)O[C@H]2C(=O)[C@H](C)CCC[C@@](C)(O)/C=C\C[C@@]3(C)O[C@@H]3C[C@@H]12`, the TGI in experiment [1] turned out to be 36.1 µM; in experiment [2] it was 56.1 µM; in experiment [3], 23.8 µM; in [5], 27.6 µM; in experiment [7] it was 42.3 µM; in experiment [8] it was 37.5 µM.

As to `O=C1N2CCc3c([nH]c4ccccc34)C23CC2CCCC12S3` (configuration not stated), the TGI in experiment [1], in [2], in experiment [3], in experiment [9], in experiment [4] and in experiment [5] was above 50 µM in each case. Moreover, the TGI in [7] and in experiment [8] was above 50 µM throughout.

As for `COc1cc([C@@H]2c3cc4c(cc3[C@@H](Nc3ccc(Cl)cc3C(=O)c3ccccc3Cl)[C@H]3COC(=O)[C@H]23)OCO4)cc(OC)c1OC`, the TGI in experiment [1] was 0.397 µM; in experiment [4], above 100 µM; in experiment [5], above 100 µM; in experiment [6], above 100 µM; in experiment [7], above 100 µM; in [8], above 100 µM.

In the case of `CC(C)CC1c2[nH]c3ccccc3c2C[C@H]2C(=O)NC(COC(C)(C)C)C(=O)N12` (some centres not stated), the TGI is 39.9 µM in [1]; above 100 µM in experiment [2]; 74.7 µM in experiment [3]; 53.4 µM in [9]; 57.9 µM in experiment [4]; above 100 µM in [5]. The figures for the TGI in experiment [7] and in [8] were 43.4 µM and above 100 µM, respectively.

For the compound `CSCCC(NC(=O)C(CC(C)C)NC(=O)CNC(=O)OC(C)(C)C)C(=O)N(C)C` (stereo not drawn) (Boc-Gly-Leu-Met-NMe2; configuration not given here), the TGI in experiment [1], in experiment [2], in experiment [3], in experiment [9], in experiment [4] and in experiment [5] was above 100 µM each time. Moreover, the TGI in experiment [7] and in [8] was above 100 µM in each case.

For `O=C(Nc1ccccc1)N1N=C(c2ccccc2)C1c1ccccc1` (configuration not stated), the TGI was 42.7 µM in experiment [2]; 91.9 µM in experiment [3]; above 100 µM in experiment [9]; above 100 µM in [5]; above 100 µM in [6]; above 100 µM in experiment [7]. Further, the TGI in experiment [8] was 51.8 µM.

In the case of `C/C=C\C(CC(=O)O)CC(=O)NCCC1CN(S(=O)(=O)C(F)(F)F)c2ccccc21` (configuration not stated), the TGI in [1], in experiment [2], in experiment [3], in experiment [4], in experiment [5] and in [6] was above 100 µM each time. In experiment [8], this compound came in with a TGI above 100 µM.

In the case of `COc1ccc(-c2c(C(C)=O)c(C)n(C3OC(CO)C(O)C(O)C3O)c(=S)c2C#N)cc1` (configuration not stated), the TGI in experiment [1], in experiment [9], in [4], in experiment [5], in experiment [7] and in experiment [8] was above 100 µM in each case.

Turning to `Cc1ccc(S(=O)(=O)NC(=O)NS(=O)(=O)O)cc1`, the TGI in experiment [3], in experiment [9], in [4], in experiment [5], in experiment [7] and in experiment [8] was above 100 µM throughout.

Take `CC(=O)OCC1OC(n2c3c(c(-c4ccco4)c(C#N)c2=S)CCCC3)C(OC(C)=O)C(OC(C)=O)C1OC(C)=O` (configuration not stated): the TGI in experiment [1] is above 100 µM; in experiment [2], 22.1 µM; in experiment [3], 19.3 µM; in experiment [4] it was above 31.6 µM; in [5], above 31.6 µM; in experiment [7], above 31.6 µM. The same compound gave a TGI in experiment [8] above 100 µM.

As to `CCC1(O)CN(CCOC)[C@H]2C[C@@H]1C(=O)c1[nH]c3ccccc3c12` (some centres not stated), the TGI in [1], in experiment [2], in experiment [3], in experiment [9], in experiment [4] and in experiment [5] was above 100 µM in each case. Also, the TGI in [6] and in experiment [8] was above 100 µM throughout.

On to `CCCCCCCC(CC(=O)O)OC(=O)CC(CCCCCCC)OC1OC(C)C(O)C(O)C1OC1OC(C)C(O)C(O)C1O` (configuration not stated), for which the TGI in experiment [1], in experiment [2], in [3], in experiment [4], in experiment [5] and in [6] was above 100 µM each time. Also, the TGI in experiment [7] and in experiment [8] was above 100 µM throughout.

On to `c1ccc(C/C(=N\Nc2nc3ccccc3o2)c2ccccn2)cc1`, for which the TGI is 12.7 µM in experiment [1]; 1.69 µM in [2]; 0.268 µM in experiment [3]; 1.68 µM in [9]; 8.38 µM in [5]; above 33.5 µM in [7]. Further, the TGI in experiment [8] is 0.0215 µM.

With `O=C(O)CCCc1nc2c(n1-c1ccccc1)C(=O)c1ccccc1C2=O`, the TGI in [2], in experiment [3], in [9], in [4], in experiment [5] and in experiment [6] was above 100 µM in each case. Moreover, the TGI in experiment [7] and in experiment [8] was above 100 µM in each case.

With `COC(=O)CNC(=O)/C=C/[C@H](O[Si](C)(C)C(C)(C)C)[C@H](/C=C/C(=O)NCC(=O)OC)O[Si](C)(C)C(C)(C)C`, the TGI in experiment [1], in experiment [2], in [3], in [4], in experiment [5] and in [6] was above 25 µM in each case. Moreover, the TGI in [7] and in experiment [8] was above 25 µM in each case.

As to `C/C(=N\O)c1ccc(Nc2c3ccccc3nc3occc23)cc1`, the TGI in experiment [1] is 0.0781 µM; in experiment [2], above 10 µM; in experiment [3], above 50 µM; in [9] it was 6.95 µM; in experiment [4] it was above 21.3 µM; in experiment [5], above 15.3 µM. The results for the TGI in [6] and in experiment [7] were 6.35 µM and 25.7 µM, respectively.

In the case of `CCCCC(=C=C1CCCCC1O)C1CCCN1C(=O)OC(C)(C)C` (configuration not stated), the TGI in experiment [1] stood at 30.6 µM; in [3] it was 26 µM; in experiment [9] it was 25.5 µM; in experiment [4], 33.5 µM; in experiment [5], 31.4 µM; in experiment [6] it was 36.6 µM. In addition, the values for the TGI in [7] and in experiment [8] were 29.8 µM and 31.6 µM, respectively.

As to `COc1ccc(NC(=O)C2=C(SC)C(=O)N=C2N)cc1`, the TGI in experiment [1], in experiment [2], in experiment [3], in experiment [9], in experiment [4] and in experiment [5] was above 100 µM each time. In addition, the TGI in [6] and in [7] was above 100 µM in each case.

With `C=C1c2nc3ccccc3n2C=C(c2ccccc2)N1c1ccc(OC)cc1`, the TGI in experiment [1], in experiment [2], in experiment [3], in [9], in experiment [4] and in experiment [5] was above 100 µM each time. Besides, in experiment [8], the TGI amounted to 24.1 µM.

In the case of `COC(=O)CCc1ccc2c(c1)CC1(C2)Cc2ccc(CCC(=O)OC)cc2C1`, the TGI was above 100 µM in experiment [1]; above 100 µM in [2]; 99.7 µM in experiment [3]; 38.7 µM in experiment [9]; above 100 µM in experiment [4]; above 100 µM in [6]. In addition, the TGI in experiment [7] and in experiment [8] was above 100 µM in each case.

Take `COC(=O)c1cc2c3c(c(C(C)=O)c(OC)c2[nH]1)NCC3`: the TGI in experiment [1], in experiment [2], in [9], in [4], in experiment [5] and in experiment [7] was above 50 µM in each case. In [8], this compound displayed a TGI above 50 µM.

The values above are taken from PubChem BioAssay (NCI).
